Measured values as given in patent publication US12077503B2, “Substituted cyclic amides and their use as herbicides” (FMC CORPORATION, priority 2015, dated 2024).

Experiments:
Type in all cases: in vivo
[1] = tested on: pigweed (Amaranthus retroflexus); assay: Test A postemergence; settings: Amaranthus retroflexus, post-emergence, 240 h, 125 g ai/ha, postemergence, visual injury vs untreated controls after approx. 10 d; 0 = no effect, 100 = complete control; read-out: Pigweed plant response rating (0 to 100 scale)
Procedure, shortened: (§1)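 Seeds sprayed preemergence with a directed soil spray, or plants at 2 to 10 cm height and one- to two-leaf stage sprayed postemergence, with test chemicals in a non-phytotoxic solvent mixture containing surfactant, in loam soil–sand blend. Injury rated visually against untreated controls after about 10 d in greenhouse, 0 (no effect) to 100 (complete control).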

[2] = tested on: blackgrass (Alopecurus myosuroides); assay: Test A postemergence; settings: Alopecurus myosuroides, post-emergence, 240 h; for pest or weed control at 125 g/ha: 125 g ai/ha, postemergence, visual injury vs untreated controls after approx. 10 d, 0 = no effect, 100 = complete control, read-out: Blackgrass plant response rating (0 to 100 scale); for pest or weed control at 31 g/ha: Postemergence, 31 g ai/ha, visual injury after approx. 10 d, 0 to 100 scale, 0 no effect, 100 complete control, read-out: Plant response rating, Blackgrass
Procedure, shortened: as §1

[3] = tested on: wheat (Triticum aestivum); assay: Test A postemergence; settings: Triticum aestivum, post-emergence, 240 h, 125 g ai/ha, postemergence, visual injury vs untreated controls after approx. 10 d; 0 = no effect, 100 = complete control; read-out: Wheat plant response rating (0 to 100 scale)
Procedure, shortened: as §1

[4] = tested on: ryegrass, Italian (Italian ryegrass, Lolium multiflorum); assay: Test A postemergence; settings: Lolium multiflorum, post-emergence, 240 h, 125 g ai/ha, postemergence, visual injury vs untreated controls after approx. 10 d; 0 = no effect, 100 = complete control; read-out: Ryegrass, Italian plant response rating (0 to 100 scale)
Procedure, shortened: as §1

[5] = tested on: corn (Zea mays); assay: Test A postemergence; settings: Zea mays, post-emergence, 240 h; for plant injury at 125 g/ha: 125 g ai/ha, postemergence, visual injury vs untreated controls after approx. 10 d, 0 = no effect, 100 = complete control, read-out: Corn plant response rating (0 to 100 scale); for Corn plant response rating (crop injury, 0 = no effect, 100 = complete kill) at 31 g/ha: Postemergence, 31 g ai/ha, visual injury after approx. 10 d, 0 to 100 scale, 100 complete control
Procedure, shortened: as §1

[6] = tested on: Galium (catchweed bedstraw, Galium aparine); assay: Test A postemergence; settings: Galium, post-emergence, 240 h; for pest or weed control at 125 g/ha: 125 g ai/ha, postemergence, visual injury vs untreated controls after approx. 10 d, 0 = no effect, 100 = complete control, read-out: Galium plant response rating (0 to 100 scale); for pest or weed control at 31 g/ha: Postemergence, 31 g ai/ha, visual injury after approx. 10 d, 0 to 100 scale, 0 no effect, 100 complete control, read-out: Plant response rating, Galium
Procedure, shortened: as §1

[7] = tested on: barnyardgrass (Echinochloa crus-galli); assay: Test A postemergence; settings: Echinochloa crus-galli, post-emergence, 240 h; for pest or weed control at 125 g/ha: 125 g ai/ha, postemergence, visual injury vs untreated controls after approx. 10 d, 0 = no effect, 100 = complete control, read-out: Barnyardgrass plant response rating (0 to 100 scale); for pest or weed control at 31 g/ha: Postemergence, 31 g ai/ha, visual injury after approx. 10 d, 0 to 100 scale, 0 no effect, 100 complete control, read-out: Plant response rating, Barnyardgrass
Procedure, shortened: as §1

[8] = tested on: ragweed (common ragweed, Ambrosia elatior); assay: Test A postemergence; settings: Ambrosia artemisiifolia, post-emergence, 240 h, 125 g ai/ha, postemergence, visual injury vs untreated controls after approx. 10 d; 0 = no effect, 100 = complete control; read-out: Ragweed plant response rating (0 to 100 scale)
Procedure, shortened: as §1

[9] = tested on: Kochia (Kochia scoparia); assay: Test A postemergence; settings: Bassia scoparia, post-emergence, 240 h; for pest or weed control at 125 g/ha: 125 g ai/ha, postemergence, visual injury vs untreated controls after approx. 10 d, 0 = no effect, 100 = complete control, read-out: Kochia plant response rating (0 to 100 scale); for pest or weed control at 31 g/ha: Postemergence, 31 g ai/ha, visual injury after approx. 10 d, 0 to 100 scale, 0 no effect, 100 complete control, read-out: Plant response rating, Kochia
Procedure, shortened: as §1

[10] = tested on: giant foxtail (Setaria faberii); assay: Test A postemergence; settings: Setaria faberi, post-emergence, 240 h; for pest or weed control at 125 g/ha: 125 g ai/ha, postemergence, visual injury vs untreated controls after approx. 10 d, 0 = no effect, 100 = complete control, read-out: Foxtail, Giant plant response rating (0 to 100 scale); for pest or weed control at 31 g/ha: Postemergence, 31 g ai/ha, visual injury after approx. 10 d, 0 to 100 scale, 0 no effect, 100 complete control, read-out: Plant response rating, Foxtail, Giant
Procedure, shortened: as §1

[11] = tested on: pigweed (Amaranthus retroflexus); assay: Test A preemergence; settings: Amaranthus retroflexus, pre-emergence, 240 h, 0 to 100 scale where 0 is no effect and 100 is complete control, read-out: Pigweed plant response rating; for pest or weed control at 31 g/ha: 31 g ai/ha, Preemergence; for pest or weed control at 125 g/ha: 125 g ai/ha, preemergence, visual injury rating, approximately 10 d
[12] = tested on: ryegrass, Italian (Italian ryegrass, Lolium multiflorum); assay: Test A preemergence; settings: Lolium multiflorum, pre-emergence, 240 h, 0 to 100 scale where 0 is no effect and 100 is complete control, read-out: Ryegrass, Italian plant response rating; for pest or weed control at 31 g/ha: 31 g ai/ha, Preemergence; for pest or weed control at 125 g/ha: 125 g ai/ha, preemergence, visual injury rating, approximately 10 d
Procedure, shortened: as §1

[13] = tested on: barnyardgrass (Echinochloa crus-galli); assay: Test A preemergence; settings: Echinochloa crus-galli, pre-emergence, 240 h, 0 to 100 scale where 0 is no effect and 100 is complete control, read-out: Barnyardgrass plant response rating; for pest or weed control at 31 g/ha: 31 g ai/ha, Preemergence; for pest or weed control at 125 g/ha: 125 g ai/ha, preemergence, visual injury rating, approximately 10 d
Procedure, shortened: as §1

[14] = tested on: ragweed (common ragweed, Ambrosia elatior); assay: Test A preemergence; settings: Ambrosia artemisiifolia, pre-emergence, 240 h, 0 to 100 scale where 0 is no effect and 100 is complete control, read-out: Ragweed plant response rating; for pest or weed control at 31 g/ha: 31 g ai/ha, Preemergence; for pest or weed control at 125 g/ha: 125 g ai/ha, preemergence, visual injury rating, approximately 10 d
Procedure, shortened: as §1

[15] = tested on: Kochia (Kochia scoparia); assay: Test A preemergence; settings: Bassia scoparia, pre-emergence, 240 h, 0 to 100 scale where 0 is no effect and 100 is complete control, read-out: Kochia plant response rating; for pest or weed control at 31 g/ha: 31 g ai/ha, Preemergence; for pest or weed control at 125 g/ha: 125 g ai/ha, preemergence, visual injury rating, approximately 10 d
Procedure, shortened: as §1

[16] = tested on: giant foxtail (Setaria faberii); assay: Test A preemergence; settings: Setaria faberi, pre-emergence, 240 h, 0 to 100 scale where 0 is no effect and 100 is complete control, read-out: Foxtail, Giant plant response rating; for pest or weed control at 31 g/ha: 31 g ai/ha, Preemergence; for pest or weed control at 125 g/ha: 125 g ai/ha, preemergence, visual injury rating, approximately 10 d
Procedure, shortened: as §1

[17] = tested on: rice (Oryra sativa); assay: Test B flooded paddy test; settings: Oryza sativa, 250 g ai/ha, Flood; 0 to 100 scale where 0 is no effect and 100 is complete control; read-out: Rice plant response rating
Procedure, shortened: (§2)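 2-leaf plants; pots flooded 3 cm over soil; cpd added to paddy water; depth held; greenhouse 13–15 d; visual rating vs controls, 0 = no effect, 100 = complete control.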

[18] = tested on: sedge, umbrella (small-flower umbrella sedge, Cyperus difformis); assay: Test B flooded paddy test; settings: Cyperus difformis, 250 g ai/ha, Flood; 0 to 100 scale where 0 is no effect and 100 is complete control; read-out: Sedge, Umbrella plant response rating
Procedure, shortened: as §2

[19] = tested on: barnyardgrass (Echinochloa crus-galli); assay: Test B flooded paddy test; settings: Echinochloa crus-galli, 250 g ai/ha, Flood; 0 to 100 scale where 0 is no effect and 100 is complete control; read-out: Barnyardgrass plant response rating
Procedure, shortened: as §2

[20] = tested on: ducksalad (Heteranthera limosa); assay: Test B flooded paddy test; settings: Heteranthera limosa, 250 g ai/ha, Flood; 0 to 100 scale where 0 is no effect and 100 is complete control; read-out: Ducksalad plant response rating
Procedure, shortened: as §2

Cc1ccc([C@H]2CN(C)C(=O)[C@@H]2C(=O)Nc2cccc(F)c2C)cc1 [Compound 1186]
pest or weed control at 125 g/ha [1]: 0%
pest or weed control at 125 g/ha [2]: 80%
pest or weed control at 31 g/ha [2]: 70%
plant injury at 125 g/ha [3]: 60%
pest or weed control at 125 g/ha [4]: 50%
plant injury at 125 g/ha [5]: 80%
Corn plant response rating (crop injury, 0 = no effect, 100 = complete kill) at 31 g/ha [5]: 30%
pest or weed control at 125 g/ha [6]: 60%
pest or weed control at 31 g/ha [6]: 50%
pest or weed control at 125 g/ha [7]: 100%
pest or weed control at 31 g/ha [7]: 100%
pest or weed control at 125 g/ha [8]: 70%
pest or weed control at 125 g/ha [9]: 60%
pest or weed control at 31 g/ha [9]: 20%
pest or weed control at 125 g/ha [10]: 90%
pest or weed control at 31 g/ha [10]: 90%
pest or weed control at 31 g/ha [11]: 30%
pest or weed control at 125 g/ha [11]: 70%
pest or weed control at 31 g/ha [12]: 20%
pest or weed control at 125 g/ha [12]: 70%
pest or weed control at 31 g/ha [13]: 90%
pest or weed control at 125 g/ha [13]: 100%
pest or weed control at 31 g/ha [14]: 0%
pest or weed control at 125 g/ha [14]: 60%
pest or weed control at 31 g/ha [15]: 70%
pest or weed control at 125 g/ha [15]: 80%
pest or weed control at 31 g/ha [16]: 100%
pest or weed control at 125 g/ha [16]: 100%
pest or weed control at 250 g/ha [17]: 30%
pest or weed control at 250 g/ha [18]: 0%
pest or weed control at 250 g/ha [19]: 75%
pest or weed control at 250 g/ha [20]: 60%

CSc1ccccc1NC(=O)[C@H]1C(=O)N(C)C[C@@H]1c1ccc(C)cc1 [Compound 1187]
pest or weed control at 125 g/ha [1]: 0%
pest or weed control at 125 g/ha [2]: 40%
pest or weed control at 31 g/ha [2]: 0%
plant injury at 125 g/ha [3]: 20%
pest or weed control at 125 g/ha [4]: 20%
plant injury at 125 g/ha [5]: 0%
Corn plant response rating (crop injury, 0 = no effect, 100 = complete kill) at 31 g/ha [5]: 0%
pest or weed control at 125 g/ha [6]: 50%
pest or weed control at 31 g/ha [6]: 20%
pest or weed control at 125 g/ha [7]: 100%
pest or weed control at 31 g/ha [7]: 20%
pest or weed control at 125 g/ha [8]: 0%
pest or weed control at 125 g/ha [9]: 20%
pest or weed control at 31 g/ha [9]: 0%
pest or weed control at 125 g/ha [10]: 80%
pest or weed control at 31 g/ha [10]: 40%
pest or weed control at 31 g/ha [11]: 0%
pest or weed control at 125 g/ha [11]: 20%
pest or weed control at 31 g/ha [12]: 0%
pest or weed control at 125 g/ha [12]: 40%
pest or weed control at 31 g/ha [13]: 70%
pest or weed control at 125 g/ha [13]: 100%
pest or weed control at 31 g/ha [14]: 0%
pest or weed control at 125 g/ha [14]: 50%
pest or weed control at 31 g/ha [15]: 50%
pest or weed control at 125 g/ha [15]: 70%
pest or weed control at 31 g/ha [16]: 90%
pest or weed control at 125 g/ha [16]: 100%
pest or weed control at 250 g/ha [17]: 0%
pest or weed control at 250 g/ha [18]: 0%
pest or weed control at 250 g/ha [19]: 60%
pest or weed control at 250 g/ha [20]: 85%
